Measurements reported in patent publication US12605451B2, “Targeted plasma protein degradation” (Novartis AG, priority 2020, dated 2026).
Read-outs that look alike come from different tables or passages of the source. Positions of bridges follow the written chain, without caps; N, C: chain ends. Non-standard residues stand in square brackets, D forms with d. Residues, ends and D or L forms follow the SMILES beside them. *: point of attachment. X6 = O=C(CCCO[C@@H]1OC(CO[C@H]2OC(CO[C@H]3OC(CO)[C@@H](O)C(O)C3C[C@H]3OC(COP(=O)(O)O)[C@@H](O)C(O)C3O)[C@@H](O)C(O)C2O)[C@@H](O)C(O[C@H]2OC(CO)[C@@H](O)C(O)C2O[C@H]2OC(COP(=O)(O)O)[C@@H](O)C(O)C2O)C1O)NNC(=O)CO/N=C/c1ccc(C(=O)*)cc1; X7 = O=C(OC[C@@H]1[C@@H]2CCc3c(nnn3CCCCCCO[C@H](O[C@@H](/C=N/OCCO[C@H]3O[C@H](CCP(=O)(O)O)[C@@H](O)[C@H](O)[C@@H]3O)CO)[C@H](O)/C=N\OCCO[C@H]3O[C@H](CCP(=O)(O)O)[C@@H](O)[C@H](O)[C@@H]3O)CC[C@@H]21)*; X1 = CC(=O)N[C@H]1[C@H]2OC[C@](COCCOCCOCCOCCn3cc(COCCNC(=O)CCOCCOCCOCCOCCC(=O)*)nn3)(O2)[C@H](O)[C@@H]1O; Bip = N[C@@H](Cc1ccc(-c2ccccc2)cc1)C(=O)O; NMeA = CN[C@@H](C)C(=O)O

Tests used:
[1] = target: M6PR (Homo sapiens, UniProt P11717); assay: SPR binding to M6P receptor
M6PR, sequence (P11717 whole entry): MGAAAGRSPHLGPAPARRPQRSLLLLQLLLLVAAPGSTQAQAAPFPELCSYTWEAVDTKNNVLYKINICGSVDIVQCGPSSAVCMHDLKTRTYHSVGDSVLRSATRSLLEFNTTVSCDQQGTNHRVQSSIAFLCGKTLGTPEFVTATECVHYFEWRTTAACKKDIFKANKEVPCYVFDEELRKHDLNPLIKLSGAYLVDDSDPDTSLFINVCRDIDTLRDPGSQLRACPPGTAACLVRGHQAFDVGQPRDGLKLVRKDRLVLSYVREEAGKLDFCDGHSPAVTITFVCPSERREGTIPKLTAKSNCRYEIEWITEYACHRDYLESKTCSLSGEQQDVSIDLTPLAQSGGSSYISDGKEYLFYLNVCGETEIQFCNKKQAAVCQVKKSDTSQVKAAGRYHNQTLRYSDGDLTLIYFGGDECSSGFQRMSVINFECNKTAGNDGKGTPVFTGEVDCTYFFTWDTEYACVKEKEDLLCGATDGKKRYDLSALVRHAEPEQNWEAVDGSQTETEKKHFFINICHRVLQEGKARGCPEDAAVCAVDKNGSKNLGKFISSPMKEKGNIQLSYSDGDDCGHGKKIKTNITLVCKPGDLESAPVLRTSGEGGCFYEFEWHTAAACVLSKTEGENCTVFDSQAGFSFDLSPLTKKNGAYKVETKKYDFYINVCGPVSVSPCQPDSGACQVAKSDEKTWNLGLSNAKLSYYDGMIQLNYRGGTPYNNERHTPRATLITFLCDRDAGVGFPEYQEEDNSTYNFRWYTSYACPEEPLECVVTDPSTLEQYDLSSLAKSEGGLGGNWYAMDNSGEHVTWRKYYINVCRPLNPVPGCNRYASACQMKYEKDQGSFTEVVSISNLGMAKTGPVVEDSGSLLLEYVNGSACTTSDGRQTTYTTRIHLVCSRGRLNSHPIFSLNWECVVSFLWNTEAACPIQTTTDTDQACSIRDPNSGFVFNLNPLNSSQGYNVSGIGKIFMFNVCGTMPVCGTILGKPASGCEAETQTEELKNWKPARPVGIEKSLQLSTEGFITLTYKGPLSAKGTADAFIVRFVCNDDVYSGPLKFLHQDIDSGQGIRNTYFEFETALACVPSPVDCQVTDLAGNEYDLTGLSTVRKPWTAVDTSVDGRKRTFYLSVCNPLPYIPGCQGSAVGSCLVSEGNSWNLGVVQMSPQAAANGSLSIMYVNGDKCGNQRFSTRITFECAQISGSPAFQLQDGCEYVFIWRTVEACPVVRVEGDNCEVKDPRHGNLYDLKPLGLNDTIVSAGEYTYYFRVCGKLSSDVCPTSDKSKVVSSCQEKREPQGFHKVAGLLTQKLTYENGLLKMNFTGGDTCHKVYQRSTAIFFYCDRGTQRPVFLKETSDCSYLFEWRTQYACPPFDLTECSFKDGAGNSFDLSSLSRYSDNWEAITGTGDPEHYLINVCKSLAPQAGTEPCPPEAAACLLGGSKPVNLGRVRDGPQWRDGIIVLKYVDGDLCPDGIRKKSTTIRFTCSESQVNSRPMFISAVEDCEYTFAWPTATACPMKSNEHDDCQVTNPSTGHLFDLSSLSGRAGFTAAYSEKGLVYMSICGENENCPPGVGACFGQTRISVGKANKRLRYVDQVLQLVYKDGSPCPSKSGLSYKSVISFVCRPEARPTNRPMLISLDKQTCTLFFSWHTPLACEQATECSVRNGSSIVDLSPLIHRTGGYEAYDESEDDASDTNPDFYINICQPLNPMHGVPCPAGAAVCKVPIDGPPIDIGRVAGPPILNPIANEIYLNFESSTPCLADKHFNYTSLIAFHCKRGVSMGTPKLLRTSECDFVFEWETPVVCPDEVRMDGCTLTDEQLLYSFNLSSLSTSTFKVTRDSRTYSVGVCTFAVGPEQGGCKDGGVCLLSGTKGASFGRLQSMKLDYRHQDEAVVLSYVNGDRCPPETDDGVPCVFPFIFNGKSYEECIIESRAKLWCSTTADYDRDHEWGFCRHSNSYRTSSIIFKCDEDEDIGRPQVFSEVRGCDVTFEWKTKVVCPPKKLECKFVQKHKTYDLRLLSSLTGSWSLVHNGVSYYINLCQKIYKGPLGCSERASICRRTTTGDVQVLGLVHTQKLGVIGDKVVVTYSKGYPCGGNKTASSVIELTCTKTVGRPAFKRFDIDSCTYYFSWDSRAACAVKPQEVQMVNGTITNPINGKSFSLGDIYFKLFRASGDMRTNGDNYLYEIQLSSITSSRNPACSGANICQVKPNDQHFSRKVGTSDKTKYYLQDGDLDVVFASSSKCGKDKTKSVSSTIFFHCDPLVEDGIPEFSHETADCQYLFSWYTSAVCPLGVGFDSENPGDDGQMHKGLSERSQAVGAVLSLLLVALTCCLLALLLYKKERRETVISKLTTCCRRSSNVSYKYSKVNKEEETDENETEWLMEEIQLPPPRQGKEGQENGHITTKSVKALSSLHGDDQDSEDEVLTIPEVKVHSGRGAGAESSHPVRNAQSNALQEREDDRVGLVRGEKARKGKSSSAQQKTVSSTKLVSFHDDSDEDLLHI
Source text: SPR was used to obtain the binding data for M6P receptor ligands compounds (int-CC6), either alone or as part of the bifunctional compound (BFC-2).

[2] = target: T1, human ASGPR1 (Homo sapiens, UniProt P07306); assay: ASGPR1 SPR direct binding (Biacore, SA chip)
T1 construct: Recombinant extracellular domain of human ASGPR1 with N-terminal biotinylated Avitag
T1 sequence (P07306 62-291 limits assumed): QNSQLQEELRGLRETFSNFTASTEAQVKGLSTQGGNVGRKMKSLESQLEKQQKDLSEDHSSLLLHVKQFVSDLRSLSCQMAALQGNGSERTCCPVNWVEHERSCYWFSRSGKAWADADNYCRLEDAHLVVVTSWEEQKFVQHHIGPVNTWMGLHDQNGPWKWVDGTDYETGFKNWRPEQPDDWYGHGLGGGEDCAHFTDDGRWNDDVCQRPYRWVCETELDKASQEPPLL
Procedure: SPR was used to obtain the binding data for ASGP receptor ligand compound (int-CC2), either alone or as part of the bifunctional compounds (BFC-13), (BFC-15) and (BFC16).
(§1) ASGPR1 SPR experiments were performed on either Biacore T200 or Biacore 8K. The assay was optimized for Biacore (Streptavidin) SA chip in running buffer consisting of 20 mM HEPES, 300 mM NaCl, 2 mM CaCl2, 0.01% tween-20, 2% DMSO, pH 7.4. Recombinant extracellular domain of human ASGPR1 with N-terminal biotinylated Avitag was diluted to 20 μg/mL in running buffer, and immobilized onto SA chip after it was preconditioned with at least four 60-second injections at 30 uL/min of 1 M NaCl/40 mM NaOH solution. Protein immobilization level varied from 500 RU to 3500 RU dependent on analytes' molecular weight, for targeted Rmax of 30 RUs. Direct binding of analytes to ASGPR1 was observed when a dose response titration of analytes in 2% DMSO was flown over the immobilized protein. Data analysis was done on either Biacore T200 Evaluation Software or Biacore Insight Evaluation Software.
SPR was used to obtain the binding data for ASGP receptor ligand compounds (int-CC2), either alone or as part of the bifunctional compounds (BFC1).
as §1, with “Biacore” for “Biacore (Streptavidin)”

[3] = target: T2, FHR3 (Homo sapiens, UniProt Q02985); assay: SPR binding to biotinylated FHR3 (Proteon XPR36); settings: Bifunctional Compound
T2 construct: Purified FHR3 with C-terminal biotinylated Avitag was used for the assay
T2 sequence (Q02985 19-330): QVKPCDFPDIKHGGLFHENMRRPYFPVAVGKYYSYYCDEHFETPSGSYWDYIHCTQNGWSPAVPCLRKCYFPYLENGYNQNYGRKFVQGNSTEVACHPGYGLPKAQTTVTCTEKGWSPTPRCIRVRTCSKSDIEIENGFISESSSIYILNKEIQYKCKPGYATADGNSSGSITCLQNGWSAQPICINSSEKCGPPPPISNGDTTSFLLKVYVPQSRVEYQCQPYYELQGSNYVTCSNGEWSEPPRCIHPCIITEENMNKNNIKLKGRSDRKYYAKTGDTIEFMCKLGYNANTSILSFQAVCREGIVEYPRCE
Procedure: SPR was used to obtain the binding data for FHR3 receptor ligands compounds (C12), (C13), (C14), (C15) and (C16), either alone or as part of the bifunctional compounds (BFC13), (BFC14), (BFC15), (BFC16) and (BFC17), respectively.
SPR Binding experiments were performed on a Proteon XPR36 instrument (Bio-Rad Laboratories). Purified FHR3 with C-terminal biotinylated Avitag was used for the assay. Biotinylated FHR3 was incubated with fivefold molar excess of bifunctional compounds (BFC13), (BFC14), (BFC15), (BFC16) or (BFC17), or compounds (C12), (C13), (C14), (C15) or (C16), and immobilized onto a Neutravidin coated sensor chip. (NLC chip, Bio-Rad Laboratories, Inc). […]
To perform sandwich SPR binding assays, His-ASGPR1 (62-291) protein stocks were diluted with running buffer to a desired concentration. […] Sensorgrams were recorded for association and dissociation phases. All sensorgrams were processed by subtracting the binding response recorded from a blank control surfaces (or interspot surfaces), followed by subtracting buffer blank injections from the reaction surface. […]

[4] = target: T3, human PCSK9 (Homo sapiens, UniProt Q8NBP7); assay: SPR binding to biotinylated human PCSK9 (Proteon XPR36); settings: Bifunctional Compound; SPR; read-out: PCSK9 KD
T3 construct: Purified recombinant full length human PCSK9 with C-terminal biotinylated Avitag
T3 sequence (Q8NBP7 153-692): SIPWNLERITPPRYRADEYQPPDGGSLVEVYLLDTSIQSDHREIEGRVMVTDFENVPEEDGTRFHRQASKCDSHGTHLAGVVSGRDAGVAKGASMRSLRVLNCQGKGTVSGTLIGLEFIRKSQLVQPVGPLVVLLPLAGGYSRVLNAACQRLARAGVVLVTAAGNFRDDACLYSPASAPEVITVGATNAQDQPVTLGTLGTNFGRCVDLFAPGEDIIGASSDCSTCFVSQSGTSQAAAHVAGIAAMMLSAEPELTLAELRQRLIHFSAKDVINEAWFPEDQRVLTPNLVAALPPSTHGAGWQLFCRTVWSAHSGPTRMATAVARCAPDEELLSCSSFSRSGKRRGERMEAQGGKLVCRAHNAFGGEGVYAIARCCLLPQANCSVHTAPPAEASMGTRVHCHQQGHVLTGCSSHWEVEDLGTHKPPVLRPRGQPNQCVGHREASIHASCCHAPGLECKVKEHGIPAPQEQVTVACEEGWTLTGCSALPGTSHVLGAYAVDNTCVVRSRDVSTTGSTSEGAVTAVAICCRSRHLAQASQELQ
Procedure: SPR was used to obtain the binding data for PCSK9 receptor ligand compound (C5), either alone or as part of the bifunctional compounds (BFC1), respectively.
SPR Binding experiments were performed on a Proteon XPR36 instrument (Bio-Rad Laboratories). Purified recombinant full length human PCSK9 with C-terminal biotinylated Avitag was used for the assay. Biotinylated human PCSK9 was incubated with fivefold molar excess of bifunctional compound (BFC1) or compound (C5), and immobilized onto a Neutravidin coated sensor chip. (NLC chip, Bio-Rad Laboratories, Inc). After conditioning the chip by injecting running buffer (20 mM Tris pH7.5, 300 mM NaCl, 25 mM CaCl2, 2 mM betamercaptoethanol, 2% DMSO and 0.05% Tween-20) at a flow rate of 0.1 mL/min for 240 s, PCSK9 protein was injected at a protein concentration of 0.02 mg/ml in running buffer with fivefold molar excess of bifunctional compound and a flow rate of 0.03 mL/min followed by 4 washes with running buffer with 1 μM of bifunctional compound (0.1 mL/min for 60 seconds each).
To perform sandwich SPR binding assays, His-ASGPR1 (62-291) protein stocks were diluted with running buffer to a desired concentration. ASGPR was injected at a flow rate of 0.1 mL/min for 240 s and allowed to dissociate for 1200 s. Sensorgrams were recorded for association and dissociation phases. All sensorgrams were processed by subtracting the binding response recorded from a blank control surfaces (or interspot surfaces), followed by subtracting buffer blank injections from the reaction surface. Data were processed with the ProteOn Manager software (version 3.1.0.6, Bio-Rad, Inc.).

[5] = Bifunctional Compound (PCSK9 series), Table 9, read-out: ASGPR binding KD

| SMILES | Kd [1] [nM] | Kd [2, 5] [nM] | Kd [4] [nM] | other results |
| --- | --- | --- | --- | --- |
| CC(C)[C@@H]1NC(=O)[C@H](Cc2ccccc2)NC(=O)CSC[C@@H](C(=O)NCC(=O)N[C@@H](CCCCNC(=O)OC[C@@H]2[C@@H]3CCc4c(nnn4CCCCCCO[C@H](O[C@@H](/C=N/OCCO[C@H]4O[C@H](CCP(=O)(O)O)[C@@H](O)[C@H](O)[C@@H]4O)CO)[C@H](O)/C=N\OCCO[C@H]4O[C@H](CCP(=O)(O)O)[C@@H](O)[C@H](O)[C@@H]4O)CC[C@@H]32)C(N)=O)NC(=O)[C@@H]2CCCN2C(=O)[C@H](C)NC(=O)[C@H](CCC(=O)O)NC(=O)[C@H](C)N(C)C(=O)[C@H](Cc2ccc(-c3ccccc3)cc2)NC(=O)[C@H](C)N(C)C(=O)[C@H](Cc2ccc(-c3ccccc3)cc2)NC(=O)[C@H]([C@@H](C)O)NC(=O)[C@H]([C@@H](C)O)NC(=O)[C@@H]2CCCN2C1=O [BFC-4] ({CH2CO}-FVPTT[Bip][NMeA][Bip][NMeA]EAPCGK(X7)-NH2; thioether N-13) | 110 |  |  |  |
| CC(C)[C@@H]1NC(=O)[C@H](Cc2ccccc2)NC(=O)CSC[C@@H](C(=O)NCC(=O)N[C@@H](CCCCNC(=O)c2ccc(/C=N/OCC(=O)NNC(=O)CCCO[C@@H]3OC(CO[C@H]4OC(CO[C@H]5OC(CO)[C@@H](O)C(O)C5C[C@H]5OC(COP(=O)(O)O)[C@@H](O)C(O)C5O)[C@@H](O)C(O)C4O)[C@@H](O)C(O[C@H]4OC(CO)[C@@H](O)C(O)C4O[C@H]4OC(COP(=O)(O)O)[C@@H](O)C(O)C4O)C3O)cc2)C(N)=O)NC(=O)[C@@H]2CCCN2C(=O)[C@H](C)NC(=O)[C@H](CCC(=O)O)NC(=O)[C@H](C)N(C)C(=O)[C@H](Cc2ccc(-c3ccccc3)cc2)NC(=O)[C@H](C)N(C)C(=O)[C@H](Cc2ccc(-c3ccccc3)cc2)NC(=O)[C@H]([C@@H](C)O)NC(=O)[C@H]([C@@H](C)O)NC(=O)[C@@H]2CCCN2C1=O (stereo partly drawn) [BFC-2] ({CH2CO}-FVPTT[Bip][NMeA][Bip][NMeA]EAPCGK(X6)-NH2; thioether N-13) | 7.19 |  |  |  |
| CC(=O)N[C@H]1[C@H](OCCCCC(=O)NCCCNC(=O)CCOCC(COCCC(=O)NCCCNC(=O)CCCCO[C@@H]2O[C@H](CO)[C@H](O)[C@H](O)[C@H]2NC(C)=O)(COCCC(=O)NCCCNC(=O)CCCCO[C@@H]2O[C@H](CO)[C@H](O)[C@H](O)[C@H]2NC(C)=O)NC(=O)CCOCCOCCOCCOCCOCCOCCOCCOCCOCCC(=O)NCCCC[C@@H]2NC(=O)[C@H](Cc3ccc(O)cc3)NC(=O)[C@H](CC(N)=O)NC(=O)[C@H](C(C)C)NC(=O)[C@H](CO)NC(=O)[C@H](Cc3ccccc3)N(C)C(=O)[C@H](CCCNC(=N)N)NC(=O)[C@H](Cc3ccccc3)NC(=O)CSC[C@@H](C(=O)NCC(N)=O)NC(=O)[C@H](Cc3ccccc3)N(C)C(=O)[C@H](CC(N)=O)NC(=O)[C@@H]3Cc4ccccc4CN3C(=O)[C@H](CC(=O)O)NC(=O)[C@H](CCCNC(=N)N)NC2=O)O[C@H](CO)[C@H](O)[C@@H]1O [BFC-15] |  |  |  | Kd ([2]; Bifunctional Compound (FHR3 series), Table 7, read-out: ASGRR KD): 0.45 nM; Kd [3]: 301 nM |
| NOCC(=O)NNC(=O)CCCO[C@@H]1OC(CO[C@H]2OC(CO[C@H]3OC(CO)[C@@H](O)[C@H](O)C3O[C@H]3OC(COP(=O)(O)O)[C@@H](O)C(O)[C@H]3O)[C@@H](O)[C@H](O)C2O)[C@@H](O)[C@H](O[C@H]2OC(CO)[C@@H](O)C(O)[C@H]2O[C@H]2OC(COP(=O)(O)O)[C@@H](O)C(O)[C@H]2O)C1O (stereo partly drawn) [int-CC6] |  |  |  | Kd ([1]; Free Ligand, SPR, read-out: M6PR binding KD): 0.327 nM |
| CC(=O)N[C@H]1[C@H]2OC[C@](COCCOCCOCCOCCn3cc(COCC(COCc4cn(CCOCCOCCOCCOC[C@@]56CO[C@@H](O5)[C@H](NC(C)=O)[C@@H](O)[C@H]6O)nn4)(COCc4cn(CCOCCOCCOCCOC[C@@]56CO[C@@H](O5)[C@H](NC(C)=O)[C@@H](O)[C@H]6O)nn4)NC(=O)CCOCCOCCOCCOCCC(=O)NCCCC[C@H](NC(=O)CNC(=O)[C@@H]4CSCC(=O)N[C@@H](Cc5ccccc5)C(=O)N[C@@H](C(C)C)C(=O)N5CCC[C@H]5C(=O)N[C@@H]([C@@H](C)O)C(=O)N[C@@H]([C@@H](C)O)C(=O)N[C@@H](Cc5ccc(-c6ccccc6)cc5)C(=O)N(C)[C@@H](C)C(=O)N[C@@H](Cc5ccc(-c6ccccc6)cc5)C(=O)N(C)[C@@H](C)C(=O)N[C@@H](CCC(=O)O)C(=O)N[C@@H](C)C(=O)N5CCC[C@H]5C(=O)N4)C(N)=O)nn3)(O2)[C@H](O)[C@@H]1O [BFC-6] |  | < 1 | 5.8 |  |
| CC(=O)N[C@H]1[C@H]2OC[C@](COCCOCCOCCOCCn3cc(COCCNC(=O)CCOCCOCCOCCOCCC(=O)NCCCC[C@H](NC(=O)CNC(=O)[C@@H]4CSCC(=O)N[C@@H](Cc5ccccc5)C(=O)N[C@@H](C(C)C)C(=O)N5CCC[C@H]5C(=O)N[C@@H]([C@@H](C)O)C(=O)N[C@@H]([C@@H](C)O)C(=O)N[C@@H](Cc5ccc(-c6ccccc6)cc5)C(=O)N(C)[C@@H](C)C(=O)N[C@@H](Cc5ccc(-c6ccccc6)cc5)C(=O)N(C)[C@@H](C)C(=O)N[C@@H](CCC(=O)O)C(=O)N[C@@H](C)C(=O)N5CCC[C@H]5C(=O)N4)C(N)=O)nn3)(O2)[C@H](O)[C@@H]1O [BFC-5] ({CH2CO}-FVPTT[Bip][NMeA][Bip][NMeA]EAPCGK(X1)-NH2; thioether N-13) |  | 90 | 4.6 |  |
